Measured values reported in patent publication US10821115B2, “Compounds that inhibit Mcl-1 protein” (priority 2017, dated 2020).
Like-named read-outs stand apart in the source and are kept apart here.

Columns and labels:
[1] = molecular target: recombinant human Mcl-1 (residues 171-327) / Bim interaction (Homo sapiens (Human), UniProt Q07820); test: biochemical; type: binding; settings: read-out: Mcl-1 HTRF IC50
[2] = system: human multiple myeloma cell line, OPM-2; test: Cell viability assay (OPM-2 10 FBS), CellTiter-Glo; type: cell-based
Outline: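 OPM-2 cells at 3000 cells/well in RPMI 1640 with 10% FBS were exposed to serially diluted compounds for 16 h at 37 °C, 5% CO2.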

[3] = TR-FRET, Mcl-1(171-327) / biotin-Bim (51-76)
[4] = Homo sapiens, OPM-2, 16 h, read-out: OPM-2 10% FBS IC50 IP, OPM-2 cells, 10% FBS, 16 h, CellTiter-Glo
[5] = read-out: OPM-2 10% FBS IC50 IP, OPM-2 cells, 10% FBS, 16 h, CellTiter-Glo

Chain of recombinant human Mcl-1 (residues 171-327) / Bim interaction (Q07820 171-327): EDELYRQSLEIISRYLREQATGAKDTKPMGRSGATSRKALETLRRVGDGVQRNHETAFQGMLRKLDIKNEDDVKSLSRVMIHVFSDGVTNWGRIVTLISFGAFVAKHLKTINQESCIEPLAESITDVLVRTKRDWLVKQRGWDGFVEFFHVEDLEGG

In the case of `CC(C)C[C@]1(O)/C=C/C[C@H](C)[C@@H](C)S(=O)(=O)NC(=O)c2ccc3c(c2)N(C[C@@H]2CC[C@H]21)C[C@@]1(CCCc2cc(Cl)ccc21)CO3` [Example 100224, (1S,3′R,6′R,7′S,8′E,11′S,12′R)-6-chloro-7′-hydroxy-11′,12′-dimethyl-7′-(2-methylpropyl)-3,4-dihydro-2H,15′H-spiro[naphthalene-1,22′-[20]oxa[13]thia[1,14]diazatetracyclo [14.7.2.0~3,6~.0~19,24~]pentacosa[8,16,18,24]tetraen]-15′-one 13′,13′-dioxide], the IC50 [1, 3] is reported as 0.345 nM and the IC50 [2, 4] is reported as 385 nM.

Molecule `COC[C@]1(OC)CCC[C@H](C)[C@@H](C)S(=O)(=O)NC(=O)c2ccc3c(c2)N(C[C@@H]2CC[C@H]21)C[C@@]1(CCCc2cc(Cl)ccc21)CO3` [Example 100225, (1S,3′R,6′R,7′S,11′S,12′R)-6-chloro-7′-methoxy-7′-(methoxymethyl)-11′,12′-dimethyl-3,4-dihydro-2H,15′H-spiro[naphthalene-1,22′-[20]oxa[13]thia[1,14]diazatetracyclo [14.7.2.0~3,6~.0~19,24~]pentacosa[16,18,24]trien]-15′-one 13′,13′-dioxide] has an IC50 [1, 3] of 0.639 nM and an IC50 [2, 5] of 882 nM.

`C[C@@H]1[C@@H](C)CCC[C@@](O)(c2nccn2C)[C@@H]2CC[C@H]2CN2C[C@@]3(CCCc4cc(Cl)ccc43)COc3ccc(cc32)C(=O)NS1(=O)=O` [Example 100226, (1S,3′R,6′R,7′S,11′S,12′R)-6-chloro-7′-hydroxy-11′,12′-dimethyl-7′-(1-methyl-1H-imidazol-2-yl)-3,4-dihydro-2H,15′H-spiro[naphthalene-1,22′-[20]oxa[13]thia[1,14]diazatetracyclo [14.7.2.0~3,6~.0~19,24~]pentacosa[16,18,24]trien]-15′-one 13′,13′-dioxide] gave an IC50 [1, 3] of 1.4 nM and an IC50 [2, 4] of 849 nM.

For `C[C@@H]1[C@@H](C)CCC[C@]2(OC[C@@H](N(C)C)CO2)[C@@H]2CC[C@H]2CN2C[C@@]3(CCCc4cc(Cl)ccc43)COc3ccc(cc32)C(=O)NS1(=O)=O` [Example 100227], the IC50 [1, 3] was 0.423 nM and the IC50 [2, 4] was 191 nM.

`C[C@@H]1[C@@H](C)CCC[C@@]2(CCO2)[C@@H]2CC[C@H]2CN2C[C@@]3(CCCc4cc(Cl)ccc43)COc3ccc(cc32)C(=O)NS1(=O)=O` [Example 100228, (1S,3′R,6′R,7′R,11′S,12′R)-6-chloro-11′,12′-dimethyl-3,4-dihydro-2H,15′H-dispiro[naphthalene-1,22′-[20]oxa[13]thia[1,14]diazatetracyclo [14.7.2.0~3,6~.0~19,24~]pentacosa[16,18,24]triene-7′,2″-oxetan]-15′-one 13′,13′-dioxide] was tested, and the IC50 [1, 3] was 0.558 nM and the IC50 [2, 4] was 3300 nM.

`CO[C@@]1(c2nccn2C)CCC[C@H](C)[C@@H](C)S(=O)(=O)NC(=O)c2ccc3c(c2)N(C[C@@H]2CC[C@H]21)C[C@@]1(CCCc2cc(Cl)ccc21)CO3` [Example 100230, (1S,3′R,6′R,7′S,11′S,12′R)-6-chloro-7′-methoxy-11′,12′-dimethyl-7′-(1-methyl-1H-imidazol-2-yl)-3,4-dihydro-2H,15′H-spiro[naphthalene-1,22′-[20]oxa[13]thia[1,14]diazatetracyclo [14.7.2.0~3,6~.0~19,24~]pentacosa[16,18,24]trien]-15′-one 13′,13′-dioxide] showed an IC50 [1, 3] of 0.473 nM and an IC50 [2, 4] of 544 nM.

With `CCC[C@]1(O)/C=C/C[C@H](C)[C@@H](C)S(=O)(=O)NC(=O)c2ccc3c(c2)N(C[C@@H]2CC[C@H]21)C[C@@]1(CCCc2cc(Cl)ccc21)CO3` [Example 100232, (1S,3′R,6′R,7′S,8′E,11′S,12′R)-6-chloro-7′-hydroxy-11′,12′-dimethyl-7′-propyl-3,4-dihydro-2H,15′H-spiro[naphthalene-1,22′-[20]oxa[13]thia[1,14]diazatetracyclo [14.7.2.0~3,6~.0~19,24~]pentacosa[8,16,18,24]tetraen]-15′-one 13′,13′-dioxide] the IC50 [1] was 0.152 nM and the IC50 [2, 4] was 389 nM.

For `C[C@@H]1[C@@H](C)C/C=C/[C@@]2(COCCO2)[C@@H]2CC[C@H]2CN2C[C@@]3(CCCc4cc(Cl)ccc43)COc3ccc(cc32)C(=O)NS1(=O)=O` [Example 100233, (2S,3′R,6′R,8′E,11′S,12′R,22′S)-6″-chloro-11′,12′-dimethyl-3″,4″-dihydro-2″H,15′H-dispiro[1,4-dioxane-2,7′-[20]oxa[13]thia[1,14]diazatetracyclo [14.7.2.0~3,6~.0~19,24~]pentacosa[8,16,18,24]tetraene-22′,1″-naphthalen]-15′-one 13′,13′-dioxide], the IC50 [1, 3] was 1.04 nM and the IC50 [2, 5] was 257 nM.

In the case of `CC[C@]1(OC)/C=C/C[C@H](C)[C@@H](C)S(=O)(=O)NC(=O)c2ccc3c(c2)N(C[C@@H]2CC[C@H]21)C[C@@]1(CCCc2cc(Cl)ccc21)CO3` [Example 100234, (1S,3′R,6′R,7′S,8′E,11′S,12′R)-6-chloro-7′-ethyl-7′-methoxy-11′,12′-dimethyl-3,4-dihydro-2H,15′H-spiro[naphthalene-1,22′-[20]oxa[13]thia[1,14]diazatetracyclo [14.7.2.0~3,6~.0~19,24~]pentacosa[8,16,18,24]tetraen]-15′-one 13′,13′-dioxide], the IC50 [1, 3] is reported as 0.237 nM and the IC50 [2, 4] is reported as 449 nM.

`C[C@@H]1[C@@H](C)C/C=C/[C@@](O)(C#N)[C@@H]2CC[C@H]2CN2C[C@@]3(CCCc4cc(Cl)ccc43)COc3ccc(cc32)C(=O)NS1(=O)=O` [Example 100235, (1S,3′R,6′R,7′S,8′E,11′S,12′R)-6-chloro-7′-hydroxy-11′,12′-dimethyl-15′-oxo-3,4-dihydro-2H-spiro[naphthalene-1,22′-[20]oxa[13]thia[1,14]diazatetracyclo [14.7.2.0~3,6~.0~19,24~]pentacosa[8,16,18,24]tetraene]-7′-carbonitrile 13′,13′-dioxide] showed an IC50 [1, 3] of 1.34 nM and an IC50 [2, 4] of 644 nM.

`CCC[C@]1(OC)/C=C/C[C@H](C)[C@@H](C)S(=O)(=O)NC(=O)c2ccc3c(c2)N(C[C@@H]2CC[C@H]21)C[C@@]1(CCCc2cc(Cl)ccc21)CO3` [Example 100236, (1S,3′R,6′R,7′S,8′E,11′S,12′R)-6-chloro-7′-methoxy-11′,12′-dimethyl-7′-propyl-3,4-dihydro-2H,15′H-spiro[naphthalene-1,22′-[20]oxa[13]thia[1,14]diazatetracyclo [14.7.2.0~3,6~.0~19,24~]pentacosa[8,16,18,24]tetraen]-15′-one 13′,13′-dioxide] showed an IC50 [1, 3] of 1.1 nM and an IC50 [2, 4] of 933 nM.

For `C[C@@H]1[C@@H](C)C/C=C/[C@](O)(C#N)[C@@H]2CC[C@H]2CN2C[C@@]3(CCCc4cc(Cl)ccc43)COc3ccc(cc32)C(=O)NS1(=O)=O` [Example 100237, (1S,3′R,6′R,7′R,8′E,11′S,12′R)-6-chloro-7′-hydroxy-11′,12′-dimethyl-15′-oxo-3,4-dihydro-2H-spiro[naphthalene-1,22′-[20]oxa[13]thia[1,14]diazatetracyclo [14.7.2.0~3,6~.0~19,24~]pentacosa[8,16,18,24]tetraene]-7′-carbonitrile 13′,13′-dioxide], the IC50 [1, 3] was 1.74 nM and the IC50 [2, 4] was 996 nM.

`C[C@@H]1[C@@H](C)CCC[C@@](O)(C2SCCCS2)[C@@H]2CC[C@H]2CN2C[C@@]3(CCCc4cc(Cl)ccc43)COc3ccc(cc32)C(=O)NS1(=O)=O` [Example 100238, (1S,3′R,6′R,7′S,11′S,12′R)-6-chloro-7′-(1,3-dithian-2-yl)-7′-hydroxy-11′,12′-dimethyl-3,4-dihydro-2H,15′H-spiro[naphthalene-1,22′-[20]oxa[13]thia[1,14]diazatetracyclo [14.7.2.0~3,6~.0~19,24~]pentacosa[16,18,24]trien]-15′-one 13′,13′-dioxide] gave an IC50 [1, 3] of 0.474 nM and an IC50 [2, 4] of 747 nM.

Work on `C[C@@H]1[C@@H](C)C/C=C/[C@](O)(c2c[nH]nn2)[C@@H]2CC[C@H]2CN2C[C@@]3(CCCc4cc(Cl)ccc43)COc3ccc(cc32)C(=O)NS1(=O)=O` [Example 100239, (1S,3′R,6′R,7′R,8′E,11′S,12′R)-6-chloro-7′-hydroxy-11′,12′-dimethyl-7′-(1H-1,2,3-triazol-4-yl)-3,4-dihydro-2H,15′H-spiro[naphthalene-1,22′-[20]oxa[13]thia[1,14]diazatetracyclo [14.7.2.0~3,6~.0~19,24~]pentacosa[8,16,18,24]tetraen]-15′-one 13′,13′-dioxide] yielded an IC50 [1, 3] of 0.333 nM and an IC50 [2, 4] of 3740 nM.

`C[C@@H]1[C@@H](C)C/C=C/[C@@](O)(Cc2ccccn2)[C@@H]2CC[C@H]2CN2C[C@@]3(CCCc4cc(Cl)ccc43)COc3ccc(cc32)C(=O)NS1(=O)=O` [Example 100241, (1S,3′R,6′R,7′S,8′E,11′S,12′R)-6-chloro-7′-hydroxy-11′,12′-dimethyl-7′-(2-pyridinylmethyl)-3,4-dihydro-2H,15′H-spiro[naphthalene-1,22′-[20]oxa[13]thia[1,14]diazatetracyclo [14.7.2.0~3,6~.0~19,24~]pentacosa[8,16,18,24]tetraen]-15′-one 13′,13′-dioxide] gave an IC50 [1, 3] of 0.365 nM and an IC50 [2, 5] of 401 nM.

For `C[C@@H]1[C@@H](C)C/C=C/[C@@](O)(Cc2ccccn2)[C@@H]2CC[C@H]2CN2C[C@@]3(CCCc4cc(Cl)ccc43)COc3ccc(cc32)C(=O)NS1(=O)=O` [Example 100242, (1S,3′R,6′R,7′S,8′E,11′S,12′R)-6-chloro-7′-hydroxy-11′,12′-dimethyl-7′-(2-pyridinylmethyl)-3,4-dihydro-2H,15′H-spiro[naphthalene-1,22′-[20]oxa[13]thia[1,14]diazatetracyclo [14.7.2.0~3,6~.0~19,24~]pentacosa[8,16,18,24]tetraen]-15′-one 13′,13′-dioxide], the IC50 [1, 3] was 2.15 nM and the IC50 [2, 5] was 1450 nM.
